Like-named read-outs stand apart in the source and are kept apart here.
How the values were obtained:
A375 = assay: Anti-proliferative activity EC50 assay (CellTiter-Glo) in A375; format: cell-based; conditions: Homo sapiens, A-375, 72 h; 3-day exposure; read-out: Cell Proliferation EC50 (nM) A375
Experimental: (§1) The growth-inhibitory activity of compounds in A375 and p61-A375, was determined using CellTiter-Glo luminescent cell viability assay (Promega). The 2,000 cells were seeded per well of a 96-well plate to ensure logarithmic growth could occur over the 3 days treatment period. Cells were left to attach for 16 hours, cells were treated in duplicate with a 10-point dilution series. Following a 3-day exposure to compounds disclosed herein, a volume of CellTiter-Glo reagent equal to the volume of cell culture medium present in each well was added. Mixture was mixed on an orbital shaker for 2 minutes to allow cell lysis, followed by 10 minutes incubation at room temperature to allow stabilization of luminescent signal, which corresponded to quantitation of ATP and thus the quantitation of metabolically active cells. Luminescent signal was measured using Pherastar FS reader (BMG Labtech).
(§2) EC50 values for growth inhibition were calculated by fitting dose-dependent data to the four-parameter logistic model using GraphPad Prism software.

wild type B-Raf = wild type B-Raf (Homo sapiens (Human), UniProt P15056); assay: WT B-Raf IC50 assay, time-resolved fluorescence energy transfer; format: biochemical
Experimental: The IC50 for each compound was calculated by non linear regression by Graphpad Prism software.

B-Raf (V600E) = B-Raf (V600E) (Homo sapiens (Human), UniProt P15056, V600E); assay: Raf IC50 assay, time-resolved fluorescence energy transfer, B-Raf (V600E); format: biochemical; conditions: 0.1 mM ATP; read-out: IC50 (nM) B_Raf^V600E
Experimental: The enzyme was incubated with the compounds at room temperature for 60 minutes and the reactions were initiated by the addition of ATP and GST-MEK1. After reaction at room temperature for 60 minutes, an equal volume of stop/detection solution was added according to the manufacture's instruction (CisBio Bioassays). […] The IC50 for each compound was derived from fitting the dose-response % inhibition data to the four-parameter logistic model by Graphpad Prism software.

C-Raf (Y340D/Y341D) = C-Raf (Y340D/Y341D) (Homo sapiens (Human), UniProt P04049, Y340D/Y341D); assay: Raf IC50 assay, time-resolved fluorescence energy transfer, C-Raf (Y340D/Y341D); format: biochemical; conditions: 0.1 mM ATP
Experimental: The assay was carried out in reactions (10 μL) containing 0.0625 nM B-Raf or 0.5 nM C-Raf, 25 mM Tris pH7.4, 10 mM MgCl2, 0.5 mM EGTA, 0.5 mM Na3VO4, 5 mM beta-glycerophosphate, 0.01% Triton X-100, 2.5 mM DTT, 0.1% BSA, 0.1 mM ATP, 13.7 nM GST-tagged MEK1 (Full-length protein with K97R mutation, recombinant protein purified from bacterial expression system) and 0-5 μM compounds disclosed herein (final concentration of 1% DMSO). The enzyme was incubated with the compounds at room temperature for 60 minutes and the reactions were initiated by the addition of ATP and GST-MEK1. After reaction at room temperature for 60 minutes, an equal volume of stop/detection solution was added according to the manufacture's instruction (CisBio Bioassays). The stop/detection solution contained Eu^3+ cryptate-conjugated anti-phospho MEK1/2 (Ser217/221) rabbit polyclonal antibody and d2-conjugated anti-GST mouse monoclonal antibody in buffer containing 25 mM Tris pH7.4, 400 mM KF, 50 mM EDTA, 0.01% BSA and 0.01% Triton X-100. Plates were sealed and incubated at room temperature for 2 hours, and the TR-FRET signals (ratio of fluorescence emission at 665 nm over emission at 620 nm with excitation at 337 nm wavelength) were recorded on a PHERAstar FS plate reader (BMG Labtech). Phosphorylation of MEK1 led to the binding of anti-phospho-MEK1/2 antibody to GST-MEK1 protein that place fluorescent donor (Eu^3+ crypate) in close proximity to the accepter d2 on the anti-GST antibody, thus resulting in a high degree of fluorescence resonance energy transfer from the donor fluorophore (at 620 nm) to the acceptor fluorophore (at 665 nm). […] The IC50 for each compound was derived from fitting the dose-response % inhibition data to the four-parameter logistic model by Graphpad Prism software.

Calu-6 (pERK) = assay: ERK phosphorylation inhibition IC50 assay in Calu-6; format: cell-based; conditions: Homo sapiens, 1 hour compound treatment
Experimental: (§3) Growth medium was then replaced with 100 μL of serum free DMEM, cells were then treated with a 10-point titration of compounds disclosed herein. After 1 hour compound treatment, 50 μL of lysis buffer (Cisbio) were added to each well and incubated at room temperature with shaking for 30 minutes. A total of 16 μL of cell lysate from each well of a 96-well plate was transferred to a 384-well small volume white plate. Lysate from each well was incubated with 2 μL of Eu^3+-cryptate (donor) labeled anti-ERK antibody (Cisbio) and 2 μL of D2 (acceptor) labeled anti-phospho-ERK antibody (Cisbio) for 2 hours at room temperature. When donor and acceptor are in close proximity, excitation of the donor with laser triggers a Fluorescence Resonance Energy Transfer (FRET) towards the acceptor, which in turn fluoresces at 655 nm wavelength. Fluorescence values were measured using a BMG reader.
(§4) IC50 values for ERK inhibition were calculated by fitting dose-dependent data to the four-parameter logistic model using GraphPad Prism software.

p61-A375 = assay: Anti-proliferative activity EC50 assay (CellTiter-Glo) in p61-A375; format: cell-based; conditions: 72 h; 3-day exposure; read-out: Cell Proliferation EC50 (nM) p61-A375
Experimental: (§5) To express p61 in mammalian cells, cDNA encoding the p61 (Poulikakos et al., Nature. 2011 Nov. 23; 480(7377):387-90) was synthesized by Genscript and cloned into pLVX-IRES-Puro vector (Clontech). The cDNA was a modified form of p61 in which sequencing encoding the flag-epitope had been inserted to the C-terminus, resulting in the expression of flag-tagged forms of protein. A375 cells were stably transfected with the Flag-p61 expressing plasmid and selected with DMEM containing […] puromycin (Invitrogen). Cells were cloned by limiting dilution in a 96-wells plate and the clones screened by western blot analysis using a monoclonal antibody directed against the flag-epitope.
as §1, §2

p61-A375 (pERK) = assay: ERK phosphorylation inhibition IC50 assay in p61-A375; format: cell-based; conditions: 1 hour compound treatment
Experimental: as §5, §3, §4

HeLa (pERK) = assay: ERK phosphorylation inhibition IC50 assay in HeLa; format: cell-based; conditions: Homo sapiens, 1 hour compound treatment
Experimental: as §3, §4

[1] = 2.5 mM ATP, read-out: IC50 (nM) B-Raf^WT 2.5 mM ATP
[2] = Km ATP (2.9 μM ATP), read-out: IC50 (nM) B-Raf^WT Km ATP

Sequence of wild type B-Raf (P15056 whole entry): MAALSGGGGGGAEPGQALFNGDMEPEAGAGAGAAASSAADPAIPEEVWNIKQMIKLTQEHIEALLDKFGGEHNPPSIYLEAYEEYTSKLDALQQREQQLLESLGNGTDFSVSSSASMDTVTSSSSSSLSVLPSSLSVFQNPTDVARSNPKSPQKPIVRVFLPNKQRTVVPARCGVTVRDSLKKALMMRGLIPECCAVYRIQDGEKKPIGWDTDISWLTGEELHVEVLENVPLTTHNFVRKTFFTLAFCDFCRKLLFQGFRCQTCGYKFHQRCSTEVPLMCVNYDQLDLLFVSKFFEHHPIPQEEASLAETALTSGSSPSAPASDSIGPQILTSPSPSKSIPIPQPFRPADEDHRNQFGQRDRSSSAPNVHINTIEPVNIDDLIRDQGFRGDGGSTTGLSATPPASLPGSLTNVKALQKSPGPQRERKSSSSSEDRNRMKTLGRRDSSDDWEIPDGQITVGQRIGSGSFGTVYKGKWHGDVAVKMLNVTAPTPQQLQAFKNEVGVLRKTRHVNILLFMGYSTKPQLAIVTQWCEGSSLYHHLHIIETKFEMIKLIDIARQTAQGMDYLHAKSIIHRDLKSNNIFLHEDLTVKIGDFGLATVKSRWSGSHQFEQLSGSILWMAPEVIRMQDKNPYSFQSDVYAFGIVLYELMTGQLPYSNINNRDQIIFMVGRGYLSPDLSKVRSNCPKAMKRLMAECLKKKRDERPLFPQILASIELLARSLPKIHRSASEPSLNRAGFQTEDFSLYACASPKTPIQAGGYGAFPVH
Sequence of C-Raf (Y340D/Y341D) (P04049 whole entry Y340D/Y341D): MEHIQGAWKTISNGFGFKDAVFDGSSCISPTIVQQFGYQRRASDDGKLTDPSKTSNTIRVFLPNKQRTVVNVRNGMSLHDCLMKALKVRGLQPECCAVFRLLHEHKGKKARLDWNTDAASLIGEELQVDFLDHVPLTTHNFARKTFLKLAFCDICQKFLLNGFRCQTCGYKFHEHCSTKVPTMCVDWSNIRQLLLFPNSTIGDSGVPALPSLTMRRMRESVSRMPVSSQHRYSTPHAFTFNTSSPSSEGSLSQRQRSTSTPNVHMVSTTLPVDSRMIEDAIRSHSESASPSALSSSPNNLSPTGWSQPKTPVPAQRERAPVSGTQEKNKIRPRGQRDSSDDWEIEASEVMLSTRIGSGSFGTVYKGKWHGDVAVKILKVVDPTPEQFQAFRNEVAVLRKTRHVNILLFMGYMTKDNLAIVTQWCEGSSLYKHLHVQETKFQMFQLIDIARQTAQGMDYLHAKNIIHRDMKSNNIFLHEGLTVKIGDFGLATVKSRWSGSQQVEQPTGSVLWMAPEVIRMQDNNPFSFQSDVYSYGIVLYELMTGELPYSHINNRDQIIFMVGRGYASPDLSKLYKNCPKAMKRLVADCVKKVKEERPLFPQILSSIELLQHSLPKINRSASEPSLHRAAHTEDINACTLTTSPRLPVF
Sequence of B-Raf (V600E) (P15056 whole entry V600E): as the sequence (P15056 whole entry) above, with V600E counted along it

Compound	EC50 (A375) [nM]	IC50 (wild type B-Raf; [1]) [nM]	IC50 (wild type B-Raf; [2]) [nM]	IC50 (B-Raf (V600E)) [nM]	IC50 (C-Raf (Y340D/Y341D)) [nM]	IC50 (Calu-6 (pERK)) [nM]	EC50 (p61-A375) [nM]	IC50 (p61-A375 (pERK)) [nM]	IC50 (HeLa (pERK)) [nM]
O=C1CCc2c(Oc3ccc4c(c3)[C@H]3[C@H](NC(=O)Nc5ccccc5F)[C@H]3O4)ccnc2N1 [Compound 1.21]	128	2.5	0.87	1.1	0.066	–	–	–	–
O=C1CCc2c(Oc3ccc4c(c3)[C@H]3[C@H](NC(=O)Nc5cccc(F)c5)[C@H]3O4)ccnc2N1 [Compound 1.22]	87	4.2	1.7	1.3	0.18	–	–	–	–
O=C1CCc2c(Oc3ccc4c(c3)[C@H]3[C@H](NC(=O)Nc5cc(F)cc(F)c5)[C@H]3O4)ccnc2N1 [Compound 1.23]	109	12	3.7	1.8	0.3	101	479	253	189
Cc1cc(NC(=O)N[C@@H]2[C@H]3Oc4ccc(Oc5ccnc6c5CCC(=O)N6)cc4[C@@H]23)ccc1F [Compound 1.24]	25	7.7	2.7	1.5	0.37	–	–	–	–
O=C1CCc2c(Oc3ccc4c(c3)[C@H]3[C@H](NC(=O)Nc5ccc(Cl)c(C(F)(F)F)c5)[C@H]3O4)ccnc2N1 [Compound 1.25]	25	–	33	27	2.3	–	–	–	–
O=C1CCc2c(Oc3ccc4c(c3)[C@H]3[C@H](NC(=O)Nc5ccc(Cl)c(Cl)c5)[C@H]3O4)ccnc2N1 [Compound 1.28]	40	49	16	5.5	0.77	–	–	–	–
O=C1CCc2c(Oc3ccc4c(c3)[C@H]3[C@H](NC(=O)Nc5ccc(F)c(C(F)(F)F)c5)[C@H]3O4)ccnc2N1 [Compound 1.32]	55	58	17	7.7	1.2	301	527	433	536
O=C1CCc2c(Oc3ccc4c(c3)[C@H]3[C@H](NC(=O)Nc5ccc(F)cc5F)[C@H]3O4)ccnc2N1 [Compound 1.35]	143	4.1	1	0.59	0.25	75	1130	314	610
O=C1CCc2c(Oc3ccc4c(c3)[C@H]3[C@H](NC(=O)Nc5ccc(F)cc5)[C@H]3O4)ccnc2N1 [Compound 1.41]	65	–	0.57	0.8	0.15	–	–	–	–
O=C1CCc2c(Oc3ccc4c(c3)[C@H]3[C@H](NC(=O)Nc5cccc(F)c5F)[C@H]3O4)ccnc2N1 [Compound 1.42]	178	–	1.5	0.94	0.24	–	–	–	–
O=C1CCc2c(Oc3ccc4c(c3)[C@H]3[C@H](NC(=O)Nc5cc(F)ccc5F)[C@H]3O4)ccnc2N1 [Compound 1.43]	96	5.9	2.1	1.2	0.26	–	–	–	–
O=C1CCc2c(Oc3ccc4c(c3)[C@H]3[C@H](NC(=O)Nc5c(F)cccc5F)[C@H]3O4)ccnc2N1 [Compound 1.44]	702	–	1.9	1.3	0.21	–	–	–	–
O=C1CCc2c(Oc3ccc4c(c3)[C@H]3[C@H](NC(=O)Nc5ccc(F)c(F)c5)[C@H]3O4)ccnc2N1 [Compound 1.45]	32	6.7	2.7	1.1	0.3	84	645	325	265
O=C1CCc2c(Oc3ccc4c(c3)[C@H]3[C@H](NC(=O)Nc5ccc(F)c(F)c5F)[C@H]3O4)ccnc2N1 [Compound 1.46]	109	6	1.7	0.78	0.22	–	–	–	–
O=C1CCc2c(Oc3ccc4c(c3)[C@H]3[C@H](NC(=O)Nc5cc(F)c(F)c(F)c5)[C@H]3O4)ccnc2N1 [Compound 1.47]	140	23	6.4	4.1	0.53	–	–	–	–
O=C1CCc2c(Oc3ccc4c(c3)[C@H]3[C@H](NC(=O)NC5CCCCCC5)[C@H]3O4)ccnc2N1 [Compound 1.52]	47.7	–	1.7	1.4	0.25	411	–	173	5430
O=C1CCc2c(Oc3ccc4c(c3)[C@H]3[C@H](NC(=O)Nc5cc(F)cc(F)c5F)[C@H]3O4)ccnc2N1 [Compound 1.53]	77	–	–	2.9	–	–	1320	–	–
O=C1CCc2c(Oc3ccc4c(c3)[C@H]3[C@H](NC(=O)NC5CCCCC5)[C@H]3O4)ccnc2N1 [Compound 1.66]	101	–	2.3	2.3	0.25	–	–	–	–
CCN1CCN(Cc2ccc(NC(=O)N[C@@H]3[C@H]4Oc5ccc(Oc6ccnc7c6CCC(=O)N7)cc5[C@@H]34)cc2C(F)(F)F)CC1 [Compound 1.73, 1-(4-((4-ethylpiperazin-1-yl)methyl)-3-(trifluoromethyl)phenyl)-3-((1S,1aS,6bS)-5-((7-oxo-5,6,7,8-tetrahydro-1,8-naphthyridin-4-yl)oxy)-1a,6b-dihydro-1H-cyclopropa[b]benzofuran-1-yl)urea]	1330	–	13	13	0.84	–	–	–	–
COc1cc(NC(=O)N[C@@H]2[C@H]3Oc4ccc(Oc5ccnc6c5CCC(=O)N6)cc4[C@@H]23)ccn1 [Compound 1.75, 1-(2-methoxypyridin-4-yl)-3-((1S,1aS,6bS)-5-((7-oxo-5,6,7,8-tetrahydro-1,8-naphthyridin-4-yl)oxy)-1a,6b-dihydro-1H-cyclopropa[b]benzofuran-1-yl)urea]	405	–	2.4	2.2	0.27	–	–	–	–
CCCS(=O)(=O)Nc1ccc(F)c(C(=O)c2c[nH]c3ncc(-c4ccc(Cl)cc4)cc23)c1F [Vemurafenib, reference compound]	178	–	–	–	–	> 10000	> 10000	> 10000	5820
